{"source": "patent US6750212B2", "about": "“Photochemotherapeutic compositions” (PhotoCure AS, priority 1997, dated 2004)", "key": {"Colon carcinoma WiDr": {"tested_on": "Colon carcinoma WiDr", "test": "PDT of WiDr colon carcinoma in nude mice, Curelight broad-band lamp one hour after drug, regression/regrowth time", "assay_type": "in vivo, Balb/c nu/nu nude mice", "details": "for effect on tumor growth after PDT: Example 5.1, FIG. 4, 5-ALA 250 mg/kg i.p. and/or chlorin e6 1 mg/kg i.v., lamp 161 mW/cm^2 15 minutes, one hour after injection; for anti-tumour effect after PDT: Example 5.2, FIG. 5, ALA-methyl ester 273 mg/kg i.p. and/or A1PcS2a 1 mg/kg i.v.", "procedure": "5-ALA (ALA) and ALA-Methyl ester (ME) were dissolved in isotonic saline to a final concentration of […].\nALA-Butyl ester (BU) was dissolved in a small amouont of ethanol and diluted further in isotonic saline to a final concentration of […] (final ethanol concentration was 2% v/v).\nAluminium phthalocyanine di-sulfonate (A1PcS2a) (Porphyrin Products Inc.) dissolved in a few drops of 1M NaOH and diluted in phosphate buffered saline (PBS, 10 MM Na-phosphate pH 7.4/150 mM NaCl) to a final concentration of 0.25 mg/ml.\nChlorin e6 (e6)(Porphyrin Products Inc.) was dissolved in PBS to a final concentration of 0.25 mg/ml.\nALA, ALA methyl ester or ALA butyl ester were administered intraperitoneally (i.p.), whereas the sensitizers were injected intravenously (i.v.).\nAll animals received the same amount of ALA (1.5 mmole), either as the free acid or in the form of an ester. […]\nSuspensions of the human tumour (Colon carcinoma WiDr-propagated by serial transplantation) was prepared from non-necrotic areas of the respective tumours and injected (20 μl) into the right hind foot of each mouse. […] Injection volume: 100 μl per mouse (approx. 25 g bodyweight).\nIllumination occurred one hour after injection of the drugs instead of three hours that was used in previous examples. In contrast to previous examples, a broad-band lamp that covers the range of 600 to 700 nm (Curelight, patent applied for by PhotoCure AS) was used instead of the laser. This was because the light should cover combinations of phthalocyanines (absorption maximum 670 nm) and protoporphyrin IX (absorption maximum 630 nm) induced by ALA or ALA-esters, respectively.\nThe average tumour volume in each group (mean ±SD) was calculated and plotted against time. The experiment was terminated when the tumor volume had reached 4-5 times the initial volume.\nOne hour after injection of the drugs the mice were irradiated using the Curelight broad-band lamp (161 mW/cm^2 for 15 minutes-144.9 J/cm^2).\nResponses of the tumors were evaluated as regression/regrowth time. The size of the tumours were measured every second day and the tumour volumes calculated according to the formula in Example 2. The mice were sacrificed when the tumour volume had reached 5 times the initial volume. For each time point, the mean (and the standard deviation of the mean) tumour volume (n=4-5) were calculated. The data were then submitted to statistical analysis (Q-test/90% confidence interval) and extreme values were rejected."}, "[1]": {"tested_on": "Human rectal papillary villous adenomas", "test": "Fluorescence localization in human rectal papillary villous adenomas by fluorescence microscopy", "assay_type": "in vivo", "details": "4.5 hours after oral administration of 60 mg/kg ALA; FIG. 3 B", "procedure": "Human rectal papillary villous adenomas from 2 patients with severe dysplasia and with a diarrheal history for some months before diagnosis were sampled 44 hours after intravenous injection of 2 mg/kg body weight PHOTOFRIN® vascular stroma-localizing photosensitizer or 4.5 hours after oral administration of 60 mg/kg ALA. The samples were immediately immersed in liquid nitrogen, then mounted in medium (Tissue Tek II embedding compound: BDH, Poole, UK). Frozen tissue sections were cut with a cryostat to a thickness of 8 Am and mounted on clean glass slides. The fluorescence localization patterns of ALA-induced PpIX and PHOTOFRIN were studied by fluorescence microscopy. The fluorescence microscopy was carried out with an Axioplan microscope (Zeiss, Germany). The filter combination comprised a 390-440 nm excitation filter, a 460 nm beam splitter and a >600 nm emission filter. The fluorescence images were recorded by a CCD camera (Astromed CCD 3200, Cambridge, UK) and an image processing unit (Astromed/Visilog, PC 486DX2 66 MHz VL)."}, "[2]": {"tested_on": "WiDr human colonic carcinoma", "test": "PDT of WiDr human colonic carcinoma in nude mice, laser light 3 hours after drug, tumor regression/regrowth time", "assay_type": "in vivo, Balb/c nu/nu nude mice", "text": "5-aminolevulinic acid (ALA) hydrochloride was purchased from Sigma Chemical Company (St. Louis, Mo.). ALA was freshly dissolved in isotonic saline and given intraperitoneally to mice. PHOTOFRIN® vascular stroma-localizing photosensitizer was obtained from Quadra Logic Technologies (Vancouver, Canada). The solution of PHOTOFRIN® vascular stroma-localizing photosensitizer was made up in isotonic solution containing 5% dextrose and given to mice intravenously via the tail vein.\nFemale Balb/c nu/nu nude mice were obtained from The Animal Department, The Norwegian Radium Hospital, housed 10 per cage and kept under specific-pathogen-free conditions. The mice were 6 weeks old and weighed 20-22 g when the experiments started. The WiDr human colonic carcinoma, used in the present study, was propagated by serial transplantation into the nude mice. Non-necrotic tumor material for inoculation was obtained by sterile dissection of large flange tumors from syngeneic mice. Macroscopically viable tumor tissue was gently minced with a pair of scissors and forced repeatedly through sterile needles of diminishing sizes from 19-gauge to 25-gauge to make a tumor-tissue suspension, 0.02 ml of which was then injected into the dorsal side of the right hind foot of each mouse. The rate of successful transplantations was nearly 100% in the present experiments. […] The tumor volume was calculated using the following formula: […]\nwhere D1, D2 and D3 are three orthogonal diameters of the tumors which were measured daily by a caliper.\nUnanesthetized mice were fixed in Lucite jigs specially designed for irradiation. The tumor area was exposed to red light from a dicyanomethylane-2-methyl-6-(p-dimethylaminostyryl)-4 H-pyran (DCM) dye laser pumped by a 5W argon ion laser (Spectra Physics, 164). The tuning range was 610-690 nm. The dye laser was tuned at 632 for both ALA-derived PpIX and PHOTOFRIN®vascular stroma-localizing photosensitizer, the tuning being controlled by means of a monochromator. […]\nResponses of the treated tumors were evaluated as described previously."}, "[3]": {"details": "Example 5.4, FIG. 7, 5-ALA butyl ester 338 mg/kg i.p. and/or A1PcS2a 1 mg/kg i.v., lamp one hour after injection"}, "[4]": {"details": "Example 3, FIG. 2, ALA 250 mg/kg i.p. (632 nm) and/or m-THPC 75 μg/kg i.v. (652 nm), laser light 3 hours after drug"}, "[5]": {"details": "Example 5.5, FIG. 8, 5-ALA methyl ester 273 mg/kg i.p. and/or A1PcS4 1 mg/kg i.v., lamp one hour after injection"}}}
{"compound": "CCCCOC(=O)CCC(=O)CN", "note": "[ALA butyl ester, 5-ALA butyl ester]", "values": [{"measurement": "time for tumours to reach 4 times the initial volume", "setting": "Colon carcinoma WiDr; Example 5.3, FIG. 6, 5-ALA butyl ester 338 mg/kg i.p. alone, lamp one hour after injection", "result": 11, "unit": "days"}, {"measurement": "effect on tumour growth after PDT", "setting": "Colon carcinoma WiDr; [3]", "result": "almost no effect"}]}
{"compound": "NCC(=O)CCC(=O)O", "note": "[ALA, 5-aminolevulinic acid]", "values": [{"measurement": "fluorescence localization of ALA-induced porphyrins in tumor tissue", "setting": "[1]", "result": "almost entirely localized within the tumor cells"}, {"measurement": "effect on tumor growth after PDT", "setting": "[2]; Example 2, FIG. 1, ALA 250 mg/kg i.p. and/or PHOTOFRIN 1 mg/kg i.v., laser 632 nm, 150 mW/cm^2 for 15 min, 3 hours after drug", "result": "had an effect on the tumor growth"}, {"measurement": "effect on tumor growth after PDT", "setting": "[2]; [4]", "result": "had an effect on the tumor growth"}, {"measurement": "effect on tumor growth after PDT", "setting": "Colon carcinoma WiDr", "result": "had no effect"}]}
{"compound": "COC(=O)CCC(=O)CN", "note": "[ALA-methyl ester, 5-ALA methyl ester]", "values": [{"measurement": "anti-tumour effect after PDT", "setting": "Colon carcinoma WiDr; lamp one hour after injection", "result": "had no anti-tumour effect"}, {"measurement": "effect on tumour growth after PDT", "setting": "Colon carcinoma WiDr; [5]", "result": "did not have any effect on tumor growth"}]}
{"compound": "C=Cc1c(C)c2cc3nc(c(CC(=O)O)c4[nH]c(cc5nc(cc1[nH]2)C(C)=C5CC)c(C)c4C(=O)O)[C@@H](CCC(=O)O)[C@@H]3C", "note": "[chlorin e6]", "values": [{"measurement": "effect on tumor growth after PDT", "setting": "Colon carcinoma WiDr", "result": "had no effect"}]}
{"compound": "Oc1cccc(-c2c3nc(c(-c4cccc(O)c4)c4ccc([nH]4)c(-c4cccc(O)c4)c4nc(c(-c5cccc(O)c5)c5ccc2[nH]5)CC4)C=C3)c1", "note": "[m-THPC, tetra(meso-hydroxyphenyl)chlorin]", "values": [{"measurement": "effect on tumor growth after PDT", "setting": "[2]; [4]", "result": "no effect"}]}
{"compound": "Aluminium phthalocyanine di-sulfonate [A1PcS2a]", "values": [{"measurement": "anti-tumour effect after PDT", "setting": "Colon carcinoma WiDr; lamp one hour after injection", "result": "a slight effect"}, {"measurement": "effect on tumour growth after PDT", "setting": "Colon carcinoma WiDr; [3]", "result": "immediate effect"}, {"measurement": "time to 4× initial tumour volume", "setting": "Colon carcinoma WiDr; Example 5.4, FIG. 7, A1PcS2a 1 mg/kg i.v. alone, lamp one hour after injection", "result": "≤ 14", "unit": "days"}]}
{"compound": "Aluminium phthalocyanine tetra-sulfonate [A1PcS4]", "values": [{"measurement": "effect on tumour growth after PDT", "setting": "Colon carcinoma WiDr; Example 5.3, FIG. 6, 5-ALA butyl ester 338 mg/kg i.p. and/or A1PcS4 1 mg/kg i.v., lamp one hour after injection", "result": "moderate effect on tumour growth"}, {"measurement": "effect on tumour growth after PDT", "setting": "Colon carcinoma WiDr; Example 5.3, FIG. 6, high dose A1PcS4 5 mg/kg i.v. alone, lamp one hour after injection", "result": "strongly delayed growth"}, {"measurement": "effect on tumour growth after PDT", "setting": "Colon carcinoma WiDr; [5]", "result": "intermediate effect"}]}
